Common to all, as to type: in vivo
Experiment [1] relates to Brachiaria plantaginea. Briefly: Post-emergence herbicidal action against Brachiaria plantaginea. An excerpt:
(§1) The following abbreviations are used in the description and the tables that follow: • g of a.i./ha=grams of active substance (active ingredient) (=100% active compound) per hectare; • The sum total of the effects of the individual applications is reported under E^A; • expected values according to Colby are each reported under E^C.
(§2) The rating period is reported in days after application (DAT).

Experiment [2] deals with Digitaria horizontalis. As to the kind of experiment: Post-emergence herbicidal action against Digitaria horizontalis. The settings on record: A3/Asulam, post-emergence, g of a.i./ha by row: 720, 100, 100 + 720.
From the text: as §1, §2

For experiment [3], the system named is Bromus sterilis. As to the kind of experiment: Post-emergence herbicidal action against Bromus sterilis.
From the text: as §1, §2

In experiment [4] the test system is Centaurea cyano. Briefly: Post-emergence herbicidal action against Centaurea cyano. Conditions: for Herbicidal action against Centaurea cyanus: 50 g of a.i./ha. In outline: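 Greenhouse pot-grown plants sprayed post-emergence at the three-leaf stage, three weeks after sowing, with spray-powder or emulsion-concentrate formulations at various dosages in 300 to 800 l/ha water on green parts.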

The subject of experiment [5] is Lamium purpureum. As to the kind of experiment: Post-emergence herbicidal action against Lamium purpureum. The method, boiled down: (§3)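 Greenhouse pot test: three-leaf-stage plants, three weeks from sowing, sprayed with spray-powder or emulsion-concentrate formulations at several dosages (300 to 800 l/ha water). Efficacy rated visually against untreated plants some 3 to 4 weeks later, with Colby formula giving expected combination effect.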

Experiment [6] concerns Matricaria inodora. Briefly: Post-emergence herbicidal action against Matricaria inodora.
Experiment [7] deals with Lolium rigidum (resistant biotype). As to the kind of experiment: Post-emergence herbicidal action against Lolium rigidum (resistant biotype).
The test system of experiment [8] is Lolium rigidum. As to the kind of experiment: Post-emergence herbicidal action against Lolium rigidum.
From the text: as §1, §2

The test system of experiment [9] is Galium aparine. As to the kind of experiment: Post-emergence herbicidal action against Galium aparine. In outline: as §3
Experiment [10] deals with Veronica hederifolia. As to the kind of experiment: Post-emergence herbicidal action against Veronica hederifolia.
For experiment [11], the system named is Phalaris minor. As to the kind of experiment: Post-emergence herbicidal action against Phalaris minor.
Experiment [12] relates to Alopecurus myosuroides. Briefly: Post-emergence herbicidal action against Alopecurus myosuroides. The method, boiled down:
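Dose unit: g a.i./ha (100% active). Scoring in days after application (DAT). E^A = sum of single-application effects; E^C = Colby expected value.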

In experiment [13] the test system is Poa annua. As to the kind of experiment: Post-emergence herbicidal action against Poa annua. The method, boiled down:
as §3

Experiment [14] deals with Lolium rigidum. As to the kind of experiment: Post-emergence herbicidal action against Lolium rigidum. The source holds these as a separate data set.
Experiment [15] has as its system Alopecurus myosuroides. Briefly: Post-emergence herbicidal action against Alopecurus myosuroides. This is another data set of the same source.
In experiment [16] the test system is Viola tricolor. Briefly: Post-emergence herbicidal action against Viola tricolor.
Experiment [17] concerns Bromus sterilis. As to the kind of experiment: Post-emergence herbicidal action against Bromus sterilis. The source holds these as a separate data set.

Regarding `COC(=O)NS(=O)(=O)c1ccc(N)cc1` [(B2.4) Asulam], the “Herbicidal action 28 DAT against Brachiaria plantaginea” value in experiment [1] (A3/Asulam, post-emergence, g of a.i./ha by row: 720, 100, 100 + 720) is reported as 0%. Further, the “Herbicidal action 28 DAT against Digitaria horizontalis” value in experiment [2] (first sub-table) and in [2] (second sub-table) was 0% in each case.

`COc1nn(C(=O)NS(=O)(=O)c2c(C(=O)O)csc2C)c(=O)n1C` [(B2.68) Thiencarbazone]: the “Herbicidal action 14 DAT against Bromus sterilis” value in experiment [3] (0.5 g of a.i./ha) worked out at 15%; in [3] (1.5 g of a.i./ha), 20%. For the same molecule, the “Herbicidal action 28 DAT against Bromus sterilis” value in [3] (0.5 g of a.i./ha) stood at 15%; in [3] (1.5 g of a.i./ha), 20%. In addition, the “Herbicidal action 14 DAT against Centaurea cyanus” value in experiment [4] (0.17 g of a.i./ha) is 0%. For the same molecule, the “Herbicidal action 28 DAT against Centaurea cyanus” value came out at 0% in experiment [4] (0.17 g of a.i./ha) and 35% in experiment [4] (1.5 g of a.i./ha). Besides, the “Herbicidal action 28 DAT against Lamium purpureum L.” value in [5] (0.17 g of a.i./ha) was determined as 35%. Further, the “Herbicidal action against Matricaria inodora” value is 15% in experiment [6] (14 DAT, 0.17 g of a.i./ha); 50% in experiment [6] (14 DAT, 0.5 g of a.i./ha); 0% in experiment [6] (28 DAT, 0.17 g of a.i./ha). Besides, the “Herbicidal action against Lolium rigidum (resistant biotype)” value in experiment [7] (14 DAT, 0.17 g of a.i./ha) is 0%; in experiment [7] (14 DAT, 0.5 g of a.i./ha), 0%; in experiment [7] (14 DAT, 1.5 g of a.i./ha), 0%; in [7] (28 DAT, 0.5 g of a.i./ha) it was 10%; in [7] (28 DAT, 1.5 g of a.i./ha), 20%. For the same molecule, the “Herbicidal action 14 DAT against Lolium rigidum” value in experiment [8] (0.5 g of a.i./ha) was 60%; in [8] (1.5 g of a.i./ha), 85%. In addition, the “Herbicidal action 28 DAT against Lolium rigidum” value turned out to be 10% in experiment [8] (0.5 g of a.i./ha) and 50% in experiment [8] (1.5 g of a.i./ha). In addition, the “Herbicidal action 14 DAT against Galium aparine” value in experiment [9] (0.17 g of a.i./ha) was found to be 60%. Further, in experiment [9] (0.17 g of a.i./ha), the “Herbicidal action 28 DAT against Galium aparine” value is on record as 50%. Further, the “Herbicidal action against Veronica hederifolia” value came to 70% in experiment [10] (14 DAT, 0.17 g of a.i./ha) and 70% in experiment [10] (28 DAT, 0.17 g of a.i./ha). Further, the “Herbicidal action against Phalaris minor” value in experiment [11] (14 DAT, 0.17 g of a.i./ha) is reported as 0%; in experiment [11] (14 DAT, 0.5 g of a.i./ha) it was 15%; in experiment [11] (14 DAT, 1.5 g of a.i./ha), 10%; in [11] (28 DAT, 0.5 g of a.i./ha), 0%; in [11] (28 DAT, 1.5 g of a.i./ha), 20%. In addition, the “Herbicidal action 14 DAT against Alopecurus myosuroides” value is listed as 40% in [12] (0.5 g of a.i./ha) and 35% in experiment [12] (1.5 g of a.i./ha). The “Herbicidal action 28 DAT against Alopecurus myosuroides” value in experiment [12] (1.5 g of a.i./ha) is given as 30%. Besides, the “Herbicidal action against Poa annua L.” value in experiment [13] (14 DAT, 0.5 g of a.i./ha) came to 10%; in experiment [13] (14 DAT, 1.5 g of a.i./ha), 15%; in [13] (28 DAT, 0.5 g of a.i./ha), 0%; in experiment [13] (28 DAT, 1.5 g of a.i./ha), 25%.

As to `N#Cc1cc(Br)c(O)c(Br)c1` [(B3.1) Bromoxynil], the “Herbicidal action against Centaurea cyanus” value in [4] (14 DAT) was determined as 30%; in experiment [4] (28 DAT) it was 10%. Besides, the “Herbicidal action against Lolium rigidum” value in experiment [14] (14 DAT, 150 g of a.i./ha) is 0%; in experiment [14] (14 DAT, 450 g of a.i./ha) it was 15%; in experiment [14] (28 DAT, 150 g of a.i./ha), 10%; in experiment [14] (28 DAT, 450 g of a.i./ha), 20%. Also, the “Herbicidal action against Lamium purpureum L.” value is 15% in [5] (14 DAT, 150 g of a.i./ha); 40% in [5] (14 DAT, 450 g of a.i./ha); 25% in experiment [5] (28 DAT, 150 g of a.i./ha); 25% in experiment [5] (28 DAT, 450 g of a.i./ha). Further, the “Herbicidal action against Alopecurus myosuroides” value in experiment [15] (14 DAT, 150 g of a.i./ha) was determined as 15%; in [15] (14 DAT, 450 g of a.i./ha), 25%; in experiment [15] (28 DAT, 150 g of a.i./ha), 15%; in experiment [15] (28 DAT, 450 g of a.i./ha), 25%. The “Herbicidal action against Matricaria inodora” value came out at 40% in experiment [6] (14 DAT, 50 g of a.i./ha); 85% in experiment [6] (14 DAT, 450 g of a.i./ha); 15% in [6] (28 DAT, 50 g of a.i./ha); 80% in [6] (28 DAT, 450 g of a.i./ha). Also, the “Herbicidal action against Viola tricolor” value stood at 15% in experiment [16] (14 DAT, 50 g of a.i./ha); 50% in experiment [16] (14 DAT, 150 g of a.i./ha); 30% in experiment [16] (14 DAT, 450 g of a.i./ha); 25% in experiment [16] (28 DAT, 50 g of a.i./ha); 40% in experiment [16] (28 DAT, 150 g of a.i./ha); 15% in experiment [16] (28 DAT, 450 g of a.i./ha). In addition, the “Herbicidal action against Lolium rigidum (resistant biotype)” value was determined as 0% in experiment [7] (14 DAT, 150 g of a.i./ha); 15% in [7] (14 DAT, 450 g of a.i./ha); 10% in [7] (28 DAT, 150 g of a.i./ha); 20% in [7] (28 DAT, 450 g of a.i./ha). For the same molecule, the “Herbicidal action against Galium aparine” value in experiment [9] (14 DAT, 50 g of a.i./ha) was determined as 20%; in [9] (14 DAT, 150 g of a.i./ha), 30%; in experiment [9] (14 DAT, 450 g of a.i./ha) it was 50%; in [9] (28 DAT, 450 g of a.i./ha), 75%. In addition, the “Herbicidal action against Veronica hederifolia” value in experiment [10] (14 DAT, 150 g of a.i./ha) is 0%; in [10] (14 DAT, 450 g of a.i./ha) it was 20%. Moreover, the “Herbicidal action against Bromus sterilis” value in [17] (14 DAT, 50 g of a.i./ha) was 0%; in experiment [17] (14 DAT, 150 g of a.i./ha), 10%; in experiment [17] (14 DAT, 450 g of a.i./ha), 10%; in experiment [17] (28 DAT, 150 g of a.i./ha), 15%; in experiment [17] (28 DAT, 450 g of a.i./ha) it was 20%. Besides, the “Herbicidal action against Phalaris minor” value came to 0% in experiment [11] (14 DAT, 50 g of a.i./ha); 10% in experiment [11] (14 DAT, 150 g of a.i./ha); 15% in experiment [11] (14 DAT, 450 g of a.i./ha); 0% in [11] (28 DAT, 150 g of a.i./ha); 15% in experiment [11] (28 DAT, 450 g of a.i./ha). Also, the “Herbicidal action against Poa annua L.” value amounted to 15% in experiment [13] (14 DAT, 150 g of a.i./ha); 20% in [13] (14 DAT, 450 g of a.i./ha); 15% in experiment [13] (28 DAT, 150 g of a.i./ha); 25% in experiment [13] (28 DAT, 450 g of a.i./ha).

With `COc1c(Cl)ccc(-c2nc(C(=O)O)c(Cl)c(N)c2F)c1F` [(B5.23) Florpyrauxifen], the “Herbicidal action 28 DAT [%] against Brachiaria plantaginea” value in [1] (30 g of a.i./ha) is 40%.
